Test system: MatTek EpiOcular ocular tissues
Experiment: MatTek EpiOcular model ocular irritation (MTT cell viability, Example 16)
Assay type: cell-based
Settings: positive control, 10%, all exposure times (5-60 minutes)
Protocol: Each of these compositions was diluted at a rate of 2 oz/gal before they were tested using the Epioccular model.
The MatTek EpiOcular™ model can be used to assess the potential ocular irritation of test articles by determining the cell viability of the tissue after exposure to the test articles. The objective of this study was to assess the ocular irritation potential of 1.56% (w/w) 12837.36.1. Control and test article exposure times were 5 minutes, 10 minutes, 20 minutes, 40 minutes and 60 minutes. After the exposures MTT was performed and data was normalized to the negative control, sterile ultrapure water (water purified and deionized˜18.2 MΩ-cm). The positive control, 10% benzalkonium chloride (BC), was effective, reducing cell viability to <10% of control for all exposure times (Tables 2a-e) and FIG. 1). The relative cell viability of ocular tissues treated with 1.56% (w/w) 12837.36.1 was 29.7%, 26.8%, 15.3%, 8.9% and 8.0% after 5, 10, 20, 40 and 60 minute exposures, respectively (Tables 2a-e and FIG. 1), resulting in an ET50 of 1.54 minutes and an estimated in vivo Draize score of 77.2 (Table 1).
The MatTek EipOcular™ model can be used to assess the potential ocular irritation of test articles by determining the cell viability of the tissue after exposure to the test articles. The objective of this study was to assess the ocular irritation potential of 1.56% (w/w) 12837.39.1. […]

Substance: benzalkonium chloride
- cell viability: < 10 % of control
